From patent US8585942B2, “Process and arrangement for producing particles utilizing subcritical fluids” (XSpray Microparticles AB, priority 2007, dated 2013)

Tests used:
[1] = Particle size characterisation by laser diffraction (Mastersizer 2000); type: physicochemical; conditions: budesonide particles; for Particle size distribution D(0.1′): diameter for the smallest particles up to 10% of the material analyzed; for Particle size distribution d(0.5)′ (mean particle size): diameter for the smallest particles up to 50% of the material analyzed; for Particle size distribution d(0.9)′: diameter for the smallest particles up to 90% of the material analyzed
Description: The terms “particle size”, “particle size diameter” and “particle size distribution” in this specification refer to values obtained as given in the Experimental Part (laser diffraction by the use of Mastersizer 2000 from Malvern Instruments Ltd, Worcestershire, United Kindom). For the meaning of “mean particle size” or “mean particle diameter” see also the Experimental Part.
A 2% w/v budesonide solution in acetone was introduced into the nozzle of FIG. 2 placed in the arrangement of FIG. 1 (except for the recycling capability) using a separate high-performance liquid chromatography pump 1.4 ml/min, together with the 125 g/min scCO2 (about 150 ml/min) which was modified with the make-up agent 4.2 ml/min acetone. The pressure in the system was 100 atm. and temperature was at 60° C. All of the streams contact within the nozzle and the budesonide powder formed and collected in the particle collecting chamber. The scCO2 and acetone was drained via the backpressure regulator outlet. Then, a further washing process was performed to eliminate the solvent mixed in the scCO2. After the washing process, the CO2 was slowly drained off from the chamber. Once the CO2 had been completely removed, the particles on the filter and on the wall were collected for analysis. The particles were characterized by laser diffraction in Mastersizer 2000 (Malvern Instruments Ltd, Worcestershire, United Kingdom).

[2] = Particle morphology and size by scanning electron microscope (TM-1000 Hitachi); type: physicochemical; conditions: Example 6: solvent acetone, fluid water 10 ml/min, solution 0.2 ml/min, coaxial tube nozzle (FIG. 6)
Procedure: It had two high pressure pumps (Jasco PU 980). One of the pump (624b) is used to feed the solution (0.2 ml/min Piroxicam in acetone (2% w/v)) (602) via a transport conduit (621) and the other pump (624a) is used to feed 10 ml/min water (fluid, anti-solvent) (603) via transport conduit (616) to a spray nozzle (601) placed in a particle collection chamber (605) containing at its outlet (625) a function for separating particles (filter) (615). The nozzle internal transport conduits were two stainless steel tubes (610,612) that were placed coaxially to each other with the inner one (612) connected to the pump (624b) for the solution and the outer one (610) to the pump (624a) for fluid. […] Particle sizes were determined to be less than 3 μm. […]
A high pressure pump (Thar P50) (724a) is used to feed 50 ml/min water (fluid, anti-solvent) (703) via a transport conduit (716) and a high pressure pump (Jasco PU 980) (724b) is used to feed 1 ml/min solution of Piroxicam in acetone (2% w/v) (702) via transport conduit (721) to a nozzle (701) placed in a particle collecting chamber (705) containing at its outlet (725) a particle separation function in the form of a filter cup (715). […] The morphology and size of the crystals in the filter cup is determined using TM1000 Hitachi scanning electron microscope. Particle sizes were determined to be between 0.5 μm to 2 μm. […]

Compound	Spec. Surface Area [1]	Particle size distribution D(0.1′) [1]	Particle size distribution d(0.5)′ (mean particle size) [1]	Particle size distribution d(0.9)′ [1]	Particle sizes [2]
CCCC1O[C@@H]2C[C@H]3[C@@H]4CCC5=CC(=O)C=C[C@]5(C)[C@H]4[C@@H](O)C[C@]3(C)[C@]2(C(=O)CO)O1 (stereo partly drawn) [Example 3, budesonide]	1.6 m^2/g	≦2.2 μm	≦4.2 μm	≦8.7 μm	–
CCCC1O[C@@H]2C[C@H]3[C@@H]4CCC5=CC(=O)C=C[C@]5(C)[C@H]4[C@@H](O)C[C@]3(C)[C@]2(C(=O)CO)O1 (stereo partly drawn) [Example 5, budesonide]	1.7 m^2/g	≦2.0 μm	≦4.1 μm	≦7.9 μm	–
CCCC1O[C@@H]2C[C@H]3[C@@H]4CCC5=CC(=O)C=C[C@]5(C)[C@H]4[C@@H](O)C[C@]3(C)[C@]2(C(=O)CO)O1 (stereo partly drawn) [Example 1, budesonide]	1.7 m^2/g	≦1.9 μm	≦4.0 μm	≦7.9 μm	–
CCCC1O[C@@H]2C[C@H]3[C@@H]4CCC5=CC(=O)C=C[C@]5(C)[C@H]4[C@@H](O)C[C@]3(C)[C@]2(C(=O)CO)O1 (stereo partly drawn) [Example 2, budesonide]	1.7 m^2/g	≦1.1 μm	≦1.9 μm	≦3.4 μm	–
CCCC1O[C@@H]2C[C@H]3[C@@H]4CCC5=CC(=O)C=C[C@]5(C)[C@H]4[C@@H](O)C[C@]3(C)[C@]2(C(=O)CO)O1 (stereo partly drawn) [Example 4, budesonide]	0.6 m^2/g	≦6.3 μm	≦14.2 μm	≦26.7 μm	–
CN1C(C(=O)Nc2ccccn2)=C(O)c2ccccc2S1(=O)=O [Piroxicam]	–	–	–	–	less than 3 μm
